These results are taken from publication PMC10541198, “Specific quinone reductase 2 inhibitors reduce metabolic burden and reverse Alzheimer’s disease phenotype in mice” (The Journal of Clinical Investigation, 2023).

One data set addresses T1, QR2 (Homo sapiens, UniProt P16083).
T1 construct: purchased Sigma-Aldrich
T1 sequence (P16083 1-231): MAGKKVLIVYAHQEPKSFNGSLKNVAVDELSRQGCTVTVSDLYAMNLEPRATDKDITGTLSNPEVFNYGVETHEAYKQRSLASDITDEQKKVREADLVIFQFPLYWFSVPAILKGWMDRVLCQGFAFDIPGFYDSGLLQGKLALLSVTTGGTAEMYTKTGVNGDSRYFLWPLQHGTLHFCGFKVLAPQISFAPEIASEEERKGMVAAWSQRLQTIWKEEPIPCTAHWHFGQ
The experiment in a line: QR2 activity assay, BNAH fluorescence (standard/primary). In kind it is biochemical. The following applies: Figure 2D; readout not stated. From the text:
(§1) A drug discovery campaign strategy was initiated to screen compounds for QR2-specific, cell-free inhibition and in vitro activity, followed by SAR optimization (Figure 2A) to achieve highly specific and potent QR2 inhibitor synthesis. In order to establish a varied and chemically amenable starting point, we developed a high-throughput QR2 assay (Supplemental Methods) that we screened against a library with approximately 200,000 compounds. […] Compounds that replicated the initial hit result were then assayed similarly against QR1 to evaluate compound specificity (Figure 2B). From the HTS, a chemically tractable and attractive series of compounds containing a sulfone flanked by an amine and a heterocycle were identified and selected for SAR development (Figure 2C, Supplemental Methods, Supplemental Table 1, and Supplemental Table 2). […]
High Throughput Screen (H TS)
The enzymatic activity of QR 2 (10 nM) was measur ed using menadione (both Sigm a -Aldrich) as subst r at e and dihydro- benzylnicotinamide (BNAH; Tocris) as co-substrate(62). The reaction was performed in 50 mM Tri s HCl, 150 mM NaCl 0.01%Tween- 20 pH=8.5 (Sigma-Aldrich) at r oom tem per atur e. Briefl y, 3 µL of menadione alone (200 µM) or a mixture of menadione and QR2 (200 µM of […]
(§2) menadione and 10 nM of QR2) were dispensed in 1536-well black Nunc plates (Thermo-Fisher) using aMultidrop™ Combi Reagent Dispenser (Thermo-Fisher) and pre-incubated with compounds for 10min. BNAH (200µM) was t hen added (3 µL) to the reaction using a BioNex Solutions BNX1536plate washer and the plates were incubated for another 10 min. Fluorescence intensity was followed in a PHERAstar FS multi-mode plate reader (BMG Labtech) us i ng an optic module with excitation at 360 nm and emission at 470 nm. The initial HTS includedapproximately 200,000 compounds at a single concentrationof 5 µM. The chemical libraries used were Selleck Chemicals Bioactives, the Drug-like set from Enamine, HitFinder collection from Maybridge, Spectrum Collection from Microsource, Lopa c from Sigma -Aldrich and the diversity set s from Chem Div and Che m Br idge .
Initial ‘‘hit’’ compounds were defined as causing >30% reduction of enzyme activity. Compounds suspected to be fluorescent were re -assayed in an absorbance assay at 350 nm using the same reaction but in a higher volume (100 µL), in a transparent plate (Greiner Bio- One). ‘‘Hit’’ compounds resulting from both the fluorescence and absorbance assay wer e t ested in a concentration- response, and IC50 values were de t er mi ne d. In parallel, the same concentration response methodologywas appliedin a selectivity assay where QR2 enzymewas replaced byQR1 […]
Chromatography System, with UV/Vis detector 2489, using XBridge® Prep C18 10 μm 10x250 mm […]
was monitored by Wat er s UPLC-MS system: Acquity UPLC® H class with PDA detector, and using […]

A further data set deals with T2, QR1 (Homo sapiens, UniProt P15559).
T2 construct: purchased Sigma-Aldrich
T2 sequence (P15559 whole entry): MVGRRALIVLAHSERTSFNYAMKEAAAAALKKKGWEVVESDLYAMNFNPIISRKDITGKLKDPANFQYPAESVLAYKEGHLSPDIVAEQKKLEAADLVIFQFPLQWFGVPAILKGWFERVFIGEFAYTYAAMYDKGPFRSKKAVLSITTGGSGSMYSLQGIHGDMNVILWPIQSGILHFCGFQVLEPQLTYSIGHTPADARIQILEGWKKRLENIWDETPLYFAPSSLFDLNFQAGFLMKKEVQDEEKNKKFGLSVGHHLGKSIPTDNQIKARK
Put plainly: QR1 selectivity assay, fluorescence. It is filed as biochemical. The following applies: Figure 2D; readout not stated.
Excerpt: as §1, §2
Initial ‘‘hit’’ compounds were defined as causing >30% reduction of enzyme activity. Compounds suspected to be fluorescent were re -assayed in an absorbance assay at 350 nm using the same reaction but in a higher volume (100 µL), in a transparent plate (Greiner Bio- One). ‘‘Hit’’ compounds resulting from both the fluorescence and absorbance assay wer e t ested in a concentration- response, and IC50 values were de t er mi ne d. In parallel, the same

The nature of data set [1]: Solubility in water / saline. It is filed as physicochemical.

As a reminder, the IC50 is the concentration that inhibits the measured activity by half.

Some results are limits rather than exact numbers.

For `Cc1ccc(-c2nnc(-c3ccccc3)o2)cc1S(=O)(=O)N1CCN(C(=O)c2ccco2)CC1` [YB-789], the values for the concentration for half-maximal inhibition (IC50) on QR2 and at QR1 were 5.71 µM and > 9.99 µM, respectively. As for `Cc1ccc(-c2cn3cccc(C)c3n2)cc1S(=O)(=O)N1CCN(C(=O)c2ccco2)CC1` [YB-792], the IC50 was 0.008 µM against QR2 and 3.33 µM on QR1. In the case of `Cc1ccn2cc(-c3ccc(C)c(S(=O)(=O)NCc4cccnc4)c3)nc2c1` [YB-812], the values for the IC50 against QR2 and at QR1 were 6.92 µM and > 9.99 µM, respectively. The like results for `Cc1ccc(-c2nnc(-c3ccccc3)o2)cc1S(=O)(=O)NCCCN1CCCC1=O` [YB-818] were, in that order, > 9.99 µM and > 9.99 µM. Consider `Cc1nc(-c2ccc(C)c(S(=O)(=O)N3CCC(C)CC3)c2)cs1` [YB-104], for which the midpoint of inhibition on QR2, the IC50, lay at 7.39 µM. `Cc1ccc(-c2cn3cccc(C)c3n2)cc1S(=O)(=O)N1CCN(C)CC1` [YB-540] returned a half-maximal inhibitory concentration (IC50) at QR2 of 0.21 µM. Besides, the solubility in water result in data set [1] is given as “water soluble”. As for `Cc1ccn2cc(-c3ccc(C)c(S(=O)(=O)Nc4ccc(Cl)cc4)c3)nc2c1` [YB-816], the IC50 on QR2 and at QR1 was > 9.99 µM each time.
